Values quoted from earlier work as cited in paper PMC8198792, “Prediction of Anticancer Peptides with High Efficacy and Low Toxicity by Hybrid Model Based on 3D Structure of Peptides” (International Journal of Molecular Sciences, 2021).
Like-named read-outs stand apart in the source and are kept apart here.

Tested on: cancer cell lines
Set-up: method as in 6 sources, ref CancerPPD [45] and SATPdb ||| ref CancerPPD/SATPdb ||| ref CancerPPD, SATPdb, Swissprot (PDB) ||| ref CancerPPD/SATPdb/Swissprot(PDB) ||| ref CancerPPD / SATPdb ||| ...
Details: cited from earlier work
Source text: Supplement ijms-22-05630-s001.zip/ACPs(seguence).xlsx, sheet "D1" | column: Activity || Supplement ijms-22-05630-s001.zip/ACPs(seguence).xlsx, sheet "D2" | column: Activity || Supplement ijms-22-05630-s001.zip/ACPs(seguence).xlsx, sheet "D3" | column: Activity || (+ 2 further places)

[1] = ACPs dataset D1, 1 = ACP (positive), 0 = non-ACP (negative), label taken from databases, ref CancerPPD [45] and SATPdb
[2] = ACPs dataset D4 (sheet "D4"), label 1 = ACP, experimentally validated ACPs, ref CancerPPD [45] and SATPdb
[3] = ACPs dataset D5 (sheet "D5"), label 1 = ACP (positive set), sequences with CancerPPD/SATPdb ID, ref CancerPPD, SATPdb
[4] = ACPs dataset sheet D2, 1 = ACP (CancerPPD/SATPdb ID), 0 = non-ACP (Swissprot/PDB ID), ref CancerPPD, SATPdb, Swissprot (PDB)
[5] = ACPs dataset D2 (supplement ACPs(seguence).xlsx, sheet D2), dataset label 1/0 (ACP / non-ACP), entries identified by Swissprot(PDB ID), ref CancerPPD/SATPdb/Swissprot(PDB)
[6] = ACPs dataset D5 (sheet "D5"), label 1 = ACP (positive set), 0 = non-ACP (negative set), ref CancerPPD [45] and SATPdb
[7] = ACPs dataset D3 (supplement sheet "D3"), 1 = ACP, 0 = non-ACP, ref CancerPPD [45] and SATPdb
[8] = ACPs dataset D4 (sheet "D4"), label 1 = ACP (CancerPPD ID), 0 = non-ACP (non-anticancer AMP, SATPdb ID), ref CancerPPD [45] and SATPdb
[9] = ACPs dataset D3 (sheet "D3"), label 1 = ACP, 0 = non-ACP, ref CancerPPD/SATPdb
[10] = ACPs dataset D4 (sheet "D4"), label 1 = ACP, 0 = non-ACP, ref CancerPPD / SATPdb
[11] = ACPs dataset D5, sheet "D5", label 1 = ACP, 0 = non-ACP, ref CancerPPD [45] and SATPdb
[12] = ACPs dataset D1, label 1 = ACP, 0 = non-ACP (non-anticancer AMPs from SATPdb), ref CancerPPD/SATPdb

KSVRGKGKGQKRKRKKSRYK [satpdb21584]
Activity [1]: 1
Activity [2]: 1
Activity [3]: 1
Activity [4]: 1

KTCENLADTFRGPCFATSNC [compound 4449]
Activity [1]: 1
Activity [2]: 1
Activity [3]: 1
Activity [4]: 1

KTCENLSGTFKGPCIPDGNCNKHCRNNEHLLSGRCRDDFRCWCTNRC [6NOM NMR - A 1-47]
Activity [5]: 0
Activity [6]: 0

KVKVKVKVpPTKVKVKVK [compound 3218]
Activity [7]: 1
Activity [8]: 1
Activity [6]: 1

KVMAHMK [satpdb14375]
Activity [9]: 0
Activity [10]: 0
Activity [11]: 0

KVNANAIKKGGKAIGKGFKVISAASTAHDVYEHIKNRRH [satpdb12894]
Activity [12]: 0
Activity [10]: 0

KWCFCVCYRGICYCRCRG [satpdb12871]
Activity [12]: 0
Activity [10]: 0

KWFKKIPKFLHLLKKF [compound 1120]
Activity [7]: 1
Activity [8]: 1
Activity [6]: 1

KWKEFLKEFKEAKKEVLHEALKAISE [satpdb14503]
Activity [9]: 0
Activity [10]: 0
Activity [11]: 0

KWKIFKKIEHMGQNIRDGLIKAGPAVQVVGQAATIYKG [satpdb11253]
Activity [1]: 0
Activity [8]: 0

KWKKLLKKPLKLLKKLL [satpdb14017]
Activity [9]: 0
Activity [10]: 0
Activity [11]: 0

KWKLF [compound 1209]
Activity [7]: 1
Activity [8]: 1
Activity [6]: 1

KWKLFAKIGIGKFLHLAKKF [compound 1837]
Activity [7]: 1
Activity [8]: 1
Activity [6]: 1

KWKLFKKIGIGKFKLAKKF [compound 1206]
Activity [7]: 1
Activity [8]: 1
Activity [6]: 1

KWKLFKKIGIGKFLHSAKKF [compound 1204]
Activity [7]: 1
Activity [8]: 1
Activity [6]: 1

KWKLFKKIGIGKFLHSATTF [compound 1188]
Activity [7]: 1
Activity [8]: 1
Activity [6]: 1

KWKLFKKIGPGKFLHSAKKF [compound 1186]
Activity [7]: 1
Activity [8]: 1
Activity [6]: 1

KWKLFKKIPHLAKKF [compound 1140]
Activity [7]: 1
Activity [8]: 1
Activity [6]: 1

KWKLFKKIPKFLHLA [compound 1134]
Activity [7]: 1
Activity [8]: 1
Activity [6]: 1

KWKLFKKIPKFLHLAKK [compound 1119]
Activity [7]: 1
Activity [8]: 1
Activity [6]: 1

KWKLFKKIPKFLHLAKKF [compound 3290]
Activity [1]: 1
Activity [2]: 1
Activity [3]: 1
Activity [4]: 1

KWKLFKKIPLHLAKKF [compound 1139]
Activity [7]: 1
Activity [8]: 1
Activity [6]: 1

KWKLFKKIPLKKF [compound 1122]
Activity [7]: 1
Activity [8]: 1
Activity [6]: 1

KWKSFAKTFKSAKKTVAHTALKAISS [compound 1445]
Activity [1]: 1
Activity [2]: 1
Activity [3]: 1
Activity [4]: 1

KWKSFIKKAKTSFLHSAKKF [satpdb14273]
Activity [9]: 0
Activity [10]: 0
Activity [11]: 0

KWKSFIKKLTDKFLHSAKKF [satpdb12512]
Activity [9]: 0
Activity [10]: 0
Activity [11]: 0

KWKSFLKTFKSLKKTVLHTLLkAISS [compound 3767]
Activity [7]: 1
Activity [8]: 1
Activity [6]: 1

KWKSFLKTFKSLKKTVLHTlLKAISS [compound 3757]
Activity [7]: 1
Activity [8]: 1
Activity [6]: 1

KWKSFLKTFKSLKkTVLHTLLKAISS [compound 3760]
Activity [7]: 1
Activity [8]: 1
Activity [6]: 1

KWKSFLKTFKSLKkTVLHTLLkAISS [compound 3766]
Activity [7]: 1
Activity [8]: 1
Activity [6]: 1

KWKSFLKTFKSlKKTVLHTLLKAISS [compound 3769]
Activity [7]: 1
Activity [8]: 1
Activity [6]: 1

KWKSFLKTFKSlKKTVLHTlLKAISS [compound 3756]
Activity [7]: 1
Activity [8]: 1
Activity [6]: 1

KWKSFlKTFKSLKKTVLHTLLKAISS [compound 3768]
Activity [7]: 1
Activity [8]: 1
Activity [6]: 1

KWKSFlKTFKSlKKTVLHTLLKAISS [compound 3770]
Activity [7]: 1
Activity [8]: 1
Activity [6]: 1

KWKSFlKTFKSlKKTVlHTlLKAISS [compound 3772]
Activity [7]: 1
Activity [8]: 1
Activity [6]: 1

KWLRRVWRWWR [compound 1877]
Activity [7]: 1
Activity [8]: 1
Activity [6]: 1

KWkSFLkTFkSLKkTVLHTLLkAISS [compound 3764]
Activity [7]: 1
Activity [8]: 1
Activity [6]: 1

LCNERPSQTWSGNCGNTAHCDKQCQDWEKASHGACHKRENHWKCFCYFNC [1BK8 NMR - A 1-50]
Activity [5]: 0
Activity [6]: 0

LCYARRRFAVCV [satpdb13142]
Activity [12]: 0
Activity [10]: 0

LCYCRRRFCGCV [satpdb12860]
Activity [12]: 0
Activity [10]: 0

LGGIVSAVKKIVDFLG [compound 1903]
Activity [7]: 1
Activity [8]: 1
Activity [6]: 1

LGQSAASAHHAYIVLAIENSFMTASKKK [compound 4207]
Activity [1]: 1
Activity [2]: 1
Activity [3]: 1
Activity [4]: 1

LHCPALVTYNTDTFESMPNPEGRYTFGASCV [satpdb27573]
Activity [1]: 1
Activity [2]: 1
Activity [3]: 1
Activity [4]: 1

LKLGTLVNLAKKIL [satpdb13705]
Activity [9]: 0
Activity [10]: 0
Activity [11]: 0

LLGMIPLAISAISALSKL [compound 4453]
Activity [1]: 1
Activity [2]: 1
Activity [3]: 1
Activity [4]: 1

LLKKLLKKLLKK [satpdb13272]
Activity [9]: 0
Activity [10]: 0
Activity [11]: 0

LLKWLKK [satpdb13213]
Activity [9]: 0
Activity [10]: 0
Activity [11]: 0

LNWGAVLKHVVK [satpdb11336]
Activity [7]: 0
Activity [10]: 0
Activity [11]: 0

LPKWKVFKKIEKVGRNIRNGIVKAGPAIAVLGEAKALG [compound 4275]
Activity [7]: 1
Activity [8]: 1
Activity [6]: 1

LPRFSTMPFIYCNINEVCHY [satpdb13486]
Activity [1]: 1
Activity [2]: 1
Activity [3]: 1
Activity [4]: 1

LRVRLASHLRKLRKRLLRDADDLQKRLAVY [compound 1665]
Activity [1]: 1
Activity [2]: 1
Activity [3]: 1
Activity [4]: 1

LSSTCILVLVKSTY [satpdb19063]
Activity [1]: 1
Activity [2]: 1
Activity [3]: 1
Activity [4]: 1

LTAEHYAAQATS [compound 4580]
Activity [1]: 1
Activity [2]: 1
Activity [3]: 1
Activity [4]: 1

LTFSDWWKLLAE [compound 5059]
Activity [1]: 1
Activity [2]: 1
Activity [3]: 1
Activity [4]: 1

LVPRGSRAGSPSGGPFCALARQPLTGARLMSGLFFALHET [satpdb15805]
Activity [1]: 1
Activity [2]: 1
Activity [3]: 1
Activity [4]: 1

LVRGCWTKSYPPKPCFVR [satpdb11395]
Activity [12]: 0
Activity [8]: 0

MAELQERIRHFWKESRRAFLVTKKPNWATYKRAAKITGLGIILIGLIGMLIRIVGILILGG [3MP7 X-ray 2.90 B 1-61]
Activity [5]: 0
Activity [11]: 0

MAKWRCKICGYIYDEDEGDPDNGISPGTKFEDLPDDWVCPLCGAPKSEFERIE [1YK5 X-ray 1.79 A/B/C/D 1-53]
Activity [5]: 0
Activity [11]: 0

MASRAARLAARLARLALRAL [satpdb10584]
Activity [1]: 0
Activity [8]: 0

MATAVYRCAKCGKEVELDLATAREVRCPYCGSKILYKPRPRVARRVKAI [4QIW X-ray 3.50 P/W 1-49]
Activity [5]: 0
Activity [6]: 0
